Values quoted from earlier work, collected in patent publication US20200197416A1, “PHARMACEUTICAL COMPOSITION COMPRISING ABIRATERONE ACETATE AND DARULOTAMIDE” (NanGenex Nanotechnology Incorporated, priority 2017, published 2020).
Read-outs that look alike come from different tables or passages of the source. Values belong to the compound of their own block, whether it stands above or below them.

Key:
[1] = not given; remark: listed apart in the source
[2] = system: serum testosterone and other androgens; settings: patients, placebo-controlled phase 3 clinical trial
[3] = not given; remark: listed apart in the source
P-glycoprotein (P-gp) = P-glycoprotein (P-gp) (Homo sapiens, UniProt P08183)
[4] = for compound present in feces, % of the administered dose: oral 14C-abiraterone acetate
[5] = system: human plasma proteins, albumin and alpha-1 acid glycoprotein
[6] = not given; remark: listed apart in the source
[7] = in vivo
PSA levels = settings: early phase clinical trials, Western mCRPC patients
[8] = not given; remark: listed apart in the source
[9] = for geometric mean Cmax,md / median tmax.md: day 7
AR = settings: preclinical trials
[10] = 1,000 mg daily, patients with metastatic CRPC
[11] = high-fat (57% fat, 825 calories) meal
[12] = low-fat meal (7% fat, 300 calories)
[13] = single dose of Abiraterone acetate, up to

Sequence of P-glycoprotein (P-gp) (P08183 whole entry): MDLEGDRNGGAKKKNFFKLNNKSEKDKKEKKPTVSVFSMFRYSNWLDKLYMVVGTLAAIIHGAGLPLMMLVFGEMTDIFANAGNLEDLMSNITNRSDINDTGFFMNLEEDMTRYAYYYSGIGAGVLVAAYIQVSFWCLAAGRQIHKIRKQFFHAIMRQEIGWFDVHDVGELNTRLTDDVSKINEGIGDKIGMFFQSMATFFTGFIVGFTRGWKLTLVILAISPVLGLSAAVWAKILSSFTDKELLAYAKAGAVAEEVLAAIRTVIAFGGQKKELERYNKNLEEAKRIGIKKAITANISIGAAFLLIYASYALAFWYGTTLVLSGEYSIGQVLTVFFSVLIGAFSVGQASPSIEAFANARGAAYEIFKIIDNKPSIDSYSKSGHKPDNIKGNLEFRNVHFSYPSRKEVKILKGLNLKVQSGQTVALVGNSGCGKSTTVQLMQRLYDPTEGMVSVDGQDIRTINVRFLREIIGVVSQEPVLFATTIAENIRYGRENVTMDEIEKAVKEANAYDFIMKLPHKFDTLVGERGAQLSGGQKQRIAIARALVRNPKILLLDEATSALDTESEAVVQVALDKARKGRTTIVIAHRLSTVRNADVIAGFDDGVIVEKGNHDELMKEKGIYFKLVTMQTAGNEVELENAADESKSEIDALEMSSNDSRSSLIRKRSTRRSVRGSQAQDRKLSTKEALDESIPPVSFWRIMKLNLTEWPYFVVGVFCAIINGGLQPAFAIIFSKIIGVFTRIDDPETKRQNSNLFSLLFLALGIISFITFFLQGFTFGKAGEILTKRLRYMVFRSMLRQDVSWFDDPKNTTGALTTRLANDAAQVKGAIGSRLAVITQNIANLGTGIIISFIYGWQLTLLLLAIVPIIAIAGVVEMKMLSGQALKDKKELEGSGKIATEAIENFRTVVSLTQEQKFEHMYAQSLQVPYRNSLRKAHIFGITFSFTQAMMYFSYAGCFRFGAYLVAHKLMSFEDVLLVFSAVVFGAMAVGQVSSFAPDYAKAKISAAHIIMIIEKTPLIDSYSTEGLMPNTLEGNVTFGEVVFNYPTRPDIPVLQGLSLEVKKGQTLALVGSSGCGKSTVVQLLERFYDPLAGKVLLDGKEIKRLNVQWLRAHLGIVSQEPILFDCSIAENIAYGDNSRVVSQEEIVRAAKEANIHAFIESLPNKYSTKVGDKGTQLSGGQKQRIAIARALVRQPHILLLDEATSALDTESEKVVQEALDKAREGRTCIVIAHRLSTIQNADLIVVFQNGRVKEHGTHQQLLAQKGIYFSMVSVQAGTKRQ

pKa of the aromatic nitrogen: 5.19
Abiraterone acetate plasma concentrations ([1]; clinical studies, below detectable levels in >99% of the analyzed samples): < 0.2 ng/mL
solubility in water [3]: practically insoluble
inhibition of P-gp (P-glycoprotein (P-gp); not told): inhibitor of P-gp
substrate of P-glycoprotein (P-gp) (P-glycoprotein (P-gp); not told): not substrates
compound present in feces, % of the administered dose [4]: approximately 55%
Compound: CC(=O)O[C@H]1CC[C@@]2(C)C(=CC[C@@H]3[C@@H]2CC[C@]2(C)C(c4cccnc4)=CC[C@@H]32)C1 [Abiraterone acetate, (3β)-17-(3-pyridinyl) androsta-5,16-dien-3-yl acetate]
effect on serum testosterone and other androgens [2]: decreased

blood-brain barrier penetration [7]: negligible
Cmax after single dose under fed conditions ([8]; 300 mg single dose, fed): 2590 ng/mL
Cmax after single dose under fed conditions ([8]; 600 mg single dose, fed): 3500 ng/mL
AUC(0-t last) fed state compared with fasting state ([8]; after 300 and 600 mg): 2.5 fold
bioavailability fed versus fasting conditions ([8]; single oral dose 300 mg): 2.5 fold
bioavailability fed versus fasting conditions ([8]; single oral dose 600 mg): 2.8 fold
overall median tmax ([8]; single-dose period): 3 to 6 h
terminal half-life ([8]; single-dose period): 10 to 15 h
Cmax,md versus Cmax after single dose under fed conditions ([9]; 300 mg): approximately 1.8 times
geometric mean AUCtau(0-12)md ([9]; 300 mg BID): 44400 ng·h/mL
mean linearity factor (RLIN) ([9]; 300 mg BID): 0.910
geometric mean Cmax,md ([9]; 300 mg BID): 4600 ng/mL
median tmax.md ([9]; 300 mg BID): 4.98 h
Cmax,md versus Cmax after single dose under fed conditions ([9]; 600 mg): ~1.7 times
geometric mean AUCtau(0-12)md ([9]; 600 mg BID): 58700 ng·h/mL
mean linearity factor (RLIN) ([9]; 600 mg BID): 0.961
geometric mean Cmax,md ([9]; 600 mg BID): 5800 ng/mL
median tmax.md ([9]; 600 mg BID): 5.48 h
increase in exposure after multiple dosing with 600 mg BID versus 300 mg BID ([9]; in vivo): 1.3 fold
binding affinity compared with other AR antagonists (such as bicalutamide and enzalutamide) (AR): higher binding affinity
Compound: CC(O)c1cc(C(=O)N[C@@H](C)Cn2ccc(-c3ccc(C#N)c(Cl)c3)n2)n[nH]1 (stereo partly drawn) [Darolutamide]
PSA levels (PSA levels): significant reductions

exposure to metabolite keto-Darolutamide compared with Darolutamide ([8]; single dose 300 mg, fasting): 1.28 fold
exposure to metabolite keto-Darolutamide compared with Darolutamide ([8]; single dose 300 mg, fed): 1.33 fold
exposure to metabolite keto-Darolutamide compared with Darolutamide ([8]; single dose 600 mg, fasting): 1.44 fold
exposure to metabolite keto-Darolutamide compared with Darolutamide ([8]; single dose 600 mg, fed): 1.61 fold
Compound: CC(=O)c1cc(C(=O)N[C@@H](C)Cn2ccc(-c3ccc(C#N)c(Cl)c3)n2)[nH]n1 [keto-Darolutamide]

Continued, compound first:

Compound: C[C@]12CC[C@H](O)CC1=CC[C@@H]1[C@@H]2CC[C@]2(C)C(c3cccnc3)=CC[C@@H]12 [Abiraterone]
bound to human plasma proteins [5]: > 99%
steady-state AUC (mean±SD) [1, 10]: 993 ± 639 ng·h/mL
steady-state C. (mean±SD) [1, 10]: 226 ± 178 ng/mL
increase in the mean AUC when dose doubled ([1]; dose doubled from 1,000 to 2,000 mg): 8%
apparent steady-state volume of distribution (mean±SD) ([1]; human, in vivo): 19,669±13,358 L
median time to reach maximum plasma Abiraterone concentrations ([1]; oral Abiraterone acetate, patients with metastatic CRPC): 2 h
mean terminal half-life of Abiraterone in plasma (mean±SD) ([1]; patients with metastatic CRPC): 12 ± 5 h
accumulation: steady-state AUC compared to a single 1,000 mg dose ([1]; steady-state vs single 1,000 mg dose of Abiraterone acetate): 2 fold
Abiraterone AUC0-28, fold higher with food [6, 11]: ~10 fold
Abiraterone Cmax, fold higher with food [6, 11]: approximately 17 fold
Abiraterone AUC0-28, fold higher with food [6, 12]: ~5 fold
Abiraterone Cmax, fold higher with food [6, 12]: approximately 7 fold
Abiraterone AUC0-28 (exposure) increase (food effect) [6, 13]: ≤ 10 fold
Abiraterone Cmax increase (food effect) [6, 13]: up to 17 fold
substrate of P-glycoprotein (P-gp) (P-glycoprotein (P-gp); in vitro, clinically relevant concentrations): not substrates
compound present in feces, % of the administered dose [4]: ~22%

Compound: C[C@]12CC[C@H](OS(=O)(=O)O)CC1=CC[C@@H]1[C@@H]2CC[C@]2(C)C(c3ccc[n+]([O-])c3)=CC[C@@H]12 [N-oxide Abiraterone sulphate]
share of exposure of circulating metabolite in human plasma ([4]; oral 14C-abiraterone acetate as capsules): about 43%

Compound: (3β)-17-(3-pyridinyl) androsta-5,16-dien-3-yl acetate [Abiraterone acetate]
radioactive dose recovered in feces ([4]; oral administration): approximately 88%
radioactive dose recovered in urine ([4]; oral administration): approximately 5%
